Patent US20200163913A1 (Shanghai Huali Biomedical Co., Ltd., priority 2017, published 2020)
Where two headings read alike, the source gives them in different places.

Tests used:
Tubulin = Tubulin polymerization activity test; assay type: biochemical; settings: tubulin 4.8 mg/ml, 37° C., 340 nm; read-out: IC50 (Table 3, tubulin polymerization test)
Experimental: Tubulin (4.8 mg/ml) protein was mixed with the test compound in a PEM buffer (100 mM PIPES, 1 mM MgCl2 and 1 mM EGTA) containing 1 mM GTP and 5% glycerol. A SPECTRA MAX 190 (Molecular Device) spectrophotometer was used to monitor the microtubule polymerization at 37° C. by light scattering at 340 nm, and the microtubule polymerization was calculated from the absorbance value. Each sample was tested three times at ten different concentrations.

[1] = tested on: human gastric cancer cell MKN45; assay: CCK-8 cell proliferation inhibition, MKN45; assay type: cell-based; settings: read-out: IC50 MKN45
Experimental: (§1) Take more than 90% of live cells for experiments. Cell proliferation inhibition test uses EnoGeneCell™ Counting Kit-8 (CCK-8) cell viability detection kit. Cells are digested and counted to make a cell suspension with a concentration of 1×10^5 cells/mL, 100 μL of cell suspension (1×10^4 cells per well) was added to each well of a 96-well plate; Incubate in a 5% CO2 incubator for 24 hours; add 100 μL of the corresponding drug-containing culture medium to each well, and set a negative control group, a vehicle control group, and a positive control group, with 5 replicates in each group; place the 96-well plate at 37° C.

[2] = tested on: human colon cancer cell HCT-116; assay: CCK-8 cell proliferation inhibition, HCT-116; assay type: cell-based
Experimental: as §1

[3] = tested on: human cervical cancer cell HeLa; assay: CCK-8 cell proliferation inhibition, HeLa; assay type: cell-based
Experimental: as §1

sarcoma S180 = assay: Tumor inhibition rate on sarcoma S180 mouse transplantation tumor; assay type: in vivo, mice; settings: for tumor observation: 8th day after administration; for Inhibition rate (tumor weight): dose 25 mg/kg, d0-d12 7 times, sacrifice day 14
Text: After 1 week of adaptation, the mice were inoculated subcutaneously with sarcoma S180 tumor tissue. After the tumor grew 100-300 mm3, the animals were randomly divided into groups.

[4] = tested on: human gastric cancer cell MGC-803; assay: CCK-8 cell proliferation inhibition, MGC-803; assay type: cell-based; settings: read-out: IC50 MGC803
Experimental: as §1

[5] = Acute toxicity test of single intragastric administration of mice; settings: both sexes, Kunming, mouse, in vivo, po, 14 days observation
Experimental: Kunming mice (body weight: 17-22 g, male and female), randomly divided according to body weight. […] The doses were 150, 130, 120, 110, 100, 90, 80, 70, 60, 50, 40, 30 mg/kg by single intragastric administration, 0.25 h, 0.5 h, 1 h, 2 h after administration Observe once every 4 h, 24 h, and then record the mortality, then observe it once a day, record the mortality for 14 days, and sacrifice the undead mice on the 15th day for pathological dissection.

[6] = tested on: human liver cancer cell HepG2; assay: CCK-8 cell proliferation inhibition, HepG2; assay type: cell-based; settings: read-out: IC50 HepG2
Experimental: as §1

[7] = tested on: human lung cancer cell A549; assay: CCK-8 cell proliferation inhibition, A549; assay type: cell-based
Experimental: as §1

Arylsulfatase = Arylsulfatase activity assay in vitro; assay type: biochemical; settings: p-nitrophenyl sulfate substrate, 405 nm; read-out: IC50 sulfatase
Experimental: Weigh an appropriate amount of the test compound and dissolve it in dimethyl sulfoxide. Dilute it with Tris-HCl buffer for 2, 5, 10, 20, 50, 100, 200, 500, 1000, 2000, 5000, and 10,000 times. Add another dilution gradient to the sample. Arylsulfatase and potassium p-nitrophenyl sulfate are directly dissolved in Tris-HCl buffer. 40 μL of the test compound, 50 μL of arylsulfatase and 50 μL of potassium p-nitrobenzene sulfate were added to a 96-well plate for reaction. A blank control without enzymes and a standard control without test compounds are used. The volume is made up with Tris-HCl buffer. 405 nm detection in the microplate reader, each sample is measured for 40 times, and the interval is 30 s. The representative time node within the time period with good linearity of the absorbance value are selected for data analysis. The measured absorbance value are subtracted from the background value of the blank control and the initial value when the reaction time are 0. For comparison, calculate the inhibition rate at different concentrations, and use the built-in forecast function of excel to predict the IC50 value.

[8] = Homo sapiens, HCT-116, 72 h, CCK-8, 72 h, read-out: IC50 HTC116
[9] = Homo sapiens, HCT-116, running text, read-out: IC50 HCT-116
[10] = Homo sapiens, HeLa, 72 h, CCK-8, 72 h, read-out: IC50 Hela
[11] = Homo sapiens, HeLa, read-out: IC50 HeLa
[12] = Homo sapiens, HepG2, 72 h, CCK-8, 72 h
[13] = Homo sapiens, HepG2, running text
[14] = A549, CCK-8, 72 h, read-out: IC50 A549

COc1ccc(/C=C\c2cc(OC)c(OC)c(OC)c2)cc1OS(N)(=O)=O [Compound A1-1, (Z)-3,4,5-trimethoxy-4′-methoxy-3′-sulfamate stilbene]
IC50 (Tubulin): 6600 nM
IC50 ([1]; MKN-45, 72 h, CCK-8, 72 h): 599 nM
IC50 ([1]; MKN-45, running text): < 600 nM
IC50 [2, 8]: 222 nM
IC50 [2, 9]: 222 nM
IC50 [3, 10]: 458 nM
IC50 [3, 11]: 340 nM
tumor observation (sarcoma S180): shrinking trend
Inhibition rate (tumor weight) (sarcoma S180): 42%
IC50 ([4]; MGC-803, 72 h, CCK-8, 72 h): 298 nM
IC50 ([4]; MGC-803, running text): < 600 nM
LD50 at 14 days [5]: 106 mg/kg
IC50 [6, 12]: 335 nM
IC50 [6, 13]: < 1000 nM
IC50 [7, 14]: 481 nM
IC50 ([7]; A549, read-out: IC50 A549): < 500 nM
IC50 (Arylsulfatase): 6160 nM

CCOc1ccc(/C=C\c2cc(OC)c(OC)c(OC)c2)cc1OS(N)(=O)=O [Compound A2-1, (Z)-3,4,5-trimethoxy-4′-ethoxy-3′-sulfamate stilbene]
IC50 ([1]; MKN-45, 72 h, CCK-8, 72 h): 325 nM
IC50 ([1]; MKN-45, running text): < 500 nM
IC50 [2, 8]: 446 nM
IC50 [2, 9]: 446 nM
IC50 ([2]; listed as (Z)-3,4,5-trimethoxy-4′-ethoxy-3′-aminosulfamatestilbene, read-out: IC50 HCT-116): < 500 nM
IC50 [3, 10]: 480 nM
IC50 [3, 11]: 480 nM
IC50 ([3]; listed as (Z)-3,4,5-trimethoxy-4′-ethoxy-3′-aminosulfamatestilbene, read-out: IC50 HeLa): < 500 nM
tumor observation (sarcoma S180): shrinking trend
Inhibition rate (tumor weight) (sarcoma S180): 40%
IC50 ([4]; MGC-803, 72 h, CCK-8, 72 h): 267 nM
IC50 ([4]; MGC-803, running text): < 500 nM
LD50 at 14 days [5]: 101 mg/kg
IC50 [6, 12]: 412 nM
IC50 [6, 13]: < 1000 nM
IC50 ([6]; listed as (Z)-3,4,5-trimethoxy-4′-ethoxy-3′-aminosulfamatestilbene): < 500 nM
IC50 [7, 14]: 229 nM
IC50 ([7]; A549, read-out: IC50 A549): < 500 nM
